Target: T1, COI1-JAZ6 complex (Arabidopsis thaliana, UniProt O04197+Q9C9E3)
T1 construct: Full-length Arabidopsis thaliana COI1 and ASK1 were co-expressed; Full-length JAZ substrate proteins were expressed as 6×His-fusion proteins in Escherichia coli; GST (cleaved yes); 6xHis; made in house; host or cells: Hi5 insect cells (COI1/ASK1); Escherichia coli (JAZ6)
T1 sequence (O04197 1-592): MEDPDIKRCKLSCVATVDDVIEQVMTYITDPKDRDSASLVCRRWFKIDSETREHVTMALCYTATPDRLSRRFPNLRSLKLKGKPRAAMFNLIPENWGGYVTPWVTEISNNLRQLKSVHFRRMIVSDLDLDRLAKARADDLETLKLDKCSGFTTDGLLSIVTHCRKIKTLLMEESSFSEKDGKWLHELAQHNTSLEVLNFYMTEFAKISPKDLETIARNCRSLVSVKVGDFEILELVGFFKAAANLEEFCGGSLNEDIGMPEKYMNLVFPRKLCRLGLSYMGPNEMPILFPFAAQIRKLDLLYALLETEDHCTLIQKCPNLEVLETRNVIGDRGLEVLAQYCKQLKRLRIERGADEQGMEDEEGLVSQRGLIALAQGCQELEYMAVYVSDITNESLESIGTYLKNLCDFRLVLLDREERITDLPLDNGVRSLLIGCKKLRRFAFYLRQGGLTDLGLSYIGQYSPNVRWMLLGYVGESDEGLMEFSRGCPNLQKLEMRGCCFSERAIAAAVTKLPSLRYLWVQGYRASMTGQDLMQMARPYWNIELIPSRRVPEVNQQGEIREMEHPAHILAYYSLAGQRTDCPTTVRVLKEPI
T1 sequence (Q39255 1-160 partner): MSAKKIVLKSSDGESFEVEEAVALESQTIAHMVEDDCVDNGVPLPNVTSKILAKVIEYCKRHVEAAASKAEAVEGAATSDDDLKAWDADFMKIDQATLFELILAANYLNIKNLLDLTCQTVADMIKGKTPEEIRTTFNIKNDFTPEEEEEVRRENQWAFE
T1 sequence (Q9C9E3 1-269): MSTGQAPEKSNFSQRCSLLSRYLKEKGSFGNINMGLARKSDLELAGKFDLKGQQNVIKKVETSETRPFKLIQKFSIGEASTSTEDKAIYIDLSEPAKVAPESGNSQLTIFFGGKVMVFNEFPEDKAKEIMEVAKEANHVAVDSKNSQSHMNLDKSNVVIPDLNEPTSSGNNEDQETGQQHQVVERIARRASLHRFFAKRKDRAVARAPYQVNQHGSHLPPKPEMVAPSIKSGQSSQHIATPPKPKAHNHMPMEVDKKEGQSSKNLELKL
Assay: Competition binding with 100 nM 3H-coronatine
Settings: relative to (3R,7S)-JA-Ile
Description: (^3H)-labeled coronatine was synthesized by Amersham. Full-length Arabidopsis thaliana COI1 and ASK1 were co-expressed as a glutathione S-transferase (GST) fusion protein and an untagged protein, respectively, in Hi5 suspension insect cells. The COI1/ASK1 complex was isolated from the soluble cell lysate by glutathione affinity chromatography. After on-column tag cleavage by tobacco etch virus protease, the complex was further purified by anion exchange and gel filtration chromatography and concentrated by ultrafiltration to 12-18 mg ml^−1. Full-length JAZ substrate proteins were expressed as 6×His-fusion proteins in Escherichia coli and purified on Ni-NTA resin with subsequent dialysis into 20 mM Tris-HCl, pH 8.0, 200 mM NaCl, and 10% glycerol.
Radioligand binding was assayed on purified proteins, with 2 mg COI1/ASK1 complex and JAZ proteins at a 1:3 molar ratio. Reactions were prepared in […] final volume and in a binding buffer containing 20 mM Tris-HCl 200 mM NaCl, and 10% glycerol. Saturation binding experiments were conducted with serial dilutions of 3H-coronatine in binding buffer. Nonspecific binding was determined in the presence of […] coronatine. Competition binding experiments were conducted with serial dilutions of JA-Ile in the presence of 100 nM ^3H coronatine with nonspecific binding determined in the presence of […] coronatine. Total binding was determined in the presence of vehicle only. Two-point binding experiments were performed in the presence of 100 nM or 300 nM ^3H-coronatine with nonspecific binding determined in the presence of […] coronatine. Following incubation with mixing at 4° C., all samples were collected with a cell harvester (Brandel, Gaithersburg, Md.) on polyethyleneimine (Sigma)-treated filters. […] Saturation binding experiments were analyzed by nonlinear regression, competition binding experiments by nonlinear regression with Ki calculation as described previously (Cheng 1973), and concentration-response data by sigmoidal dose-response curve fitting, all using GraphPad Prism version 4.00 for MacOSX.

CC[C@H]1C=C(C(=O)N[C@@]2(C(=O)O)C[C@@H]2CC)[C@H]2CCC(=O)[C@H]2C1 [coronatine]
Affinity of coronatine over (3R,7S)-JA-Ile in binding assays: approximately tenfold

Source: US9297017B2, “Methods and compositions for targeted protein degradation” (University of Washington, priority 2010, dated 2016)
